Some results are limits rather than exact numbers.

The values below come from patent US12012375B2, “Prostaglandin F2 alpha derivatives for decreasing intraocular pressure” (GURUS BIOPHARM LIMITED LIABILITY COMPANY, priority 2018, dated 2024).

Series [1] relates to 3T3-L1 cells. Nature of the series: Cytotoxicity, MTT assay of cell survival. In kind it is cell-based. As to conditions: cultivated mice 3T3-L1 cells, 24 hours incubation. Here is the method:
(§1) 3T3-L1 cells were incubated at 95% humidity, in the 5% CO2 atmosphere, at 37° C. Cultivation was performed in DMEM medium comprising 7% FCS, 2 mM of glutamine, 100 U/ml of penicillin, 100 μg/ml of streptomycin and 0.25 μg/ml of amphotericin B. Cells were subcultured every 48-72 hours. For the purpose of suspending the cells were incubated in Versene's solution within 1 minute and in Trypsin-EDTA solution within 1 minute (0.25%).
(§2) Cells were inoculated by 30 thousand into wells of 96-well plate (monolayer) in 100 μl of medium for MTT-test. After 24 hours of cultivation 100 μl of test substances in the medium used for cell culture were added to the cells with replacement of culture medium with a new one. Cells were incubated with test substances for 24 hours. Cells, to which 100 μl of medium used for cell culture were added to, were used as […].
(§3) Assessment of cell survival in the culture using the MTT assay After the incubation, the medium was removed from each well, and then 100 μl of MTT solution were added to each well (0.5 mg/ml of MTT, 3.5 mg/ml of D-glucose in Hanks' solution). The plate was placed into CO2-incubator (Ependorf, Germany) for 1.5 h. After that, MTT was removed and 100 μl of DMSO were added to each well and mixed for 2 minutes in a shaker at 550 rpm. Then, the solution optical density was determined at the wavelength of 576 nm and 620 nm using a plate reader (EFOS 9305, OAO MZ Sapphir).

For series [2], the system named is 3T3-L1 cells. Put plainly: Nitric oxide generation (modified Griess method). The following applies: for NO generation, % to control: mice 3T3-L1 cells, concentration of 100 μM, 20 hours. The series is classed as cell-based, mice. Here is the method:
3T3-L1 cells were incubated at 95% humidity, in the 5% CO2 atmosphere, at 37° C. Cultivation was performed in DMEM medium comprising 7% FCS, 2 mM of glutamine, 100 U/ml of penicillin, 100 μg/ml of streptomycin and 0.25 μg/ml of amphotericin B. Cells were subcultured every 48-72 hours. For the purpose of suspending the cells were incubated in Versene's solution within 2-3 minutes and in Trypsin-EDTA solution (0.25%).
Cells were inoculated by 30 thousand into wells (monolayer) of 96-well plate in 100 μl of medium. Incubation with substances lasted 20 hours. After that, medium aliquot was sampled from each well, and NO concentration was determined by modified Griess method. 12.5 μl of 0.04% sulfanilamide water solution were added to 75 μl of test medium in wells of 96-well plate for EIA, held within 10 minutes at room temperature protected from light, then, 12.5 μl of 2% naphthylethylenediamine solution in 3M of HCl were added, held again for 10 minutes at room temperature protected from light, then the optical absorption was determined at the wavelength of 540 nm.
For orientation: Nitrite, measured by Griess reagent, commonly stands in for NO production.

A further series concerns normotensive rabbits. Put plainly: Reducing intraocular pressure after instillation in normotensive rabbits. The series is classed as in vivo, chinchilla rabbits. The following applies: for IOP reduction: single instillation of 2 drops into both eyes, maximum value of 5 animals' average data within 6 hours. Here is the method:
The study was performed on chinchilla rabbits with a mass of 2.5-3 kg. IOP was measured by automatic manual veterinary tonometer Tonovet (Icare, Finland).
2 groups of rabbets were used for testing each sample:
5 animals instilled with a single dose of sample into both eyes.
5 animals instilled with a single dose of normal saline into both eyes.
All test samples were instilled by 2 drops by a disposable pipette. IOP was measured before instillation and further, every hour within 6 hours. All tested substances were capable of reducing intraocular pressure in normotensive rabbits.

Series [3] is described as follows: Cytotoxicity, MTT assay of cell survival. The series is classed as cell-based. As to conditions: mouse, cultivated mice 3T3-L1 cells, 24 hours incubation. On the procedure:
as §1, §2, §3
In general terms: Tetrazolium assays rely on reduction of a dye to a coloured formazan, in cell work by metabolically active cells.

Series [4] concerns 3T3-L1 cells. Nature of the series: Increase of intracellular calcium concentration (Calcium Green fluorescence). In kind it is cell-based, mice. As to conditions: 67 μM stated for the reference substances, for 10 minutes. Here is the method:
3T3-L1 cells were cultivated in DMEM medium with addition of 10% fetal calf serum (FCS), 4 mM of L-glutamine, 100 U/ml of penicillin, 100 μg/ml of streptomycin, 2.5 μg/ml of amphotericin B. Cells were cultured in the atmosphere of 5% CO2, 95% humidity at 37° C. Cell density at the time of experiment was 7000 per well of a 96-well plate, Calcium Green dye (1.5 mM, loading in 0.4% Pluronic F-62 in incubation medium without BSA for 1 hour at 37° C., triple washing of 200 μl of incubation medium after loading), incubation medium: Hanks' solution, 1 g/l of D-glucose, 1 mg/ml of fat-free BSA, introduction of substances in ethanol (<0.5% final concentration), incubation at 25° C., detecting at the excitation wavelength 485 nm, emission wavelength 535 nm.

The compound `CCCCCC(O)C=CC1C(O)CC(O)C1CC=CCCCC(=O)NC(CO)C(=O)O` [Compound 2, Prostaglandin F2α Amide with L-Serine] displayed an EC50 in the series with 3T3-L1 cells [1] above 200 µM. In addition, the “NO generation, % to control” value in the series with 3T3-L1 cells [2] worked out at 25%.

For `CCCCC[C@H](O)/C=C/[C@@H]1[C@@H](C/C=C\CCCC(=O)NC2CC2)[C@@H](O)C[C@H]1O` [Compound 6, Prostaglandin F2α Amide with Cyclopropylamine], in the series with normotensive rabbits, the “ability to reduce intraocular pressure (in words)” value is on record as “more prominent” and the IOP reduction came to 3.30 mm Hg. The compound also gave an EC50 with 3T3-L1 cells [1] of 124 ± 2 µM. Besides, in the series on 3T3-L1 cells [2], the “NO generation, % to control” value is given as 5%.

Regarding `CCCCCC(O)C=CC1C(O)CC(O)C1CC=CCCCC(=O)N1CCCC1CO` [Compound 7, Prostaglandin F2a Amide with L-Prolinol], the EC50 in the series with 3T3-L1 cells [1] was determined as 104 ± 2 µM. Further, the “NO generation, % to control” value in the series on 3T3-L1 cells [2] was determined as 15%.

In the series on normotensive rabbits, `CCCCC[C@H](O)/C=C/[C@@H]1[C@@H](C/C=C\CCCC(=O)NCCOC(=O)NCCO[N+](=O)[O-])[C@@H](O)C[C@H]1O` [Compound 11, Prostaglandin F2α Amide with 2-Aminoethyl-[2-(Nitroxy)Ethyl]Carbamate] gave an IOP reduction of 1.50 mm Hg. Also, the EC50 at 24 h in series [3] is 184 ± 3 µM. Also, the “NO generation, % to control” value in the series on 3T3-L1 cells [2] stood at 28%.

Consider `CCCCC[C@H](O)/C=C/[C@@H]1[C@@H](C/C=C\CCCC(=O)NCCO)[C@@H](O)C[C@H]1O` [prostamide F2, prostaglandin F2α ethanolamide], for which the “calcium sensor fluorescence increase relative to control” value in the series on 3T3-L1 cells [4] was 185 AU.

In the case of “Prostaglandin F2α Amide with L-Nitroserine Isopropyl Ether [Compound 5]”, in the series with normotensive rabbits, the IOP reduction is 1.20 mm Hg. For the same compound, a half-maximal effect with 3T3-L1 cells [1] (EC50) was put at 195 ± 2 µM.

Turning to “Prostaglandin F2α Amide with L-Nitroserine [Compound 1]”, in the series with 3T3-L1 cells [1], it took 226.4 ± 2 µM to reach a half-maximal effect (EC50). The “NO generation, % to control” value in the series with 3T3-L1 cells [2] came out at 7%.

On to “Prostaglandin F2α Amide with L-Serine Isopropyl Ether [Compound 3]”, for which, in the series on normotensive rabbits, the “ability to reduce intraocular pressure (in words)” value was “more prominent” and the IOP reduction amounted to 3.20 mm Hg. Moreover, it took 144 ± 3 µM to reach a half-maximal effect in the series on 3T3-L1 cells [1] (EC50). The “calcium sensor fluorescence increase relative to control” value in the series on 3T3-L1 cells [4] is listed as 405 AU. Further, in the series on 3T3-L1 cells [2] (3T3-L1 cells, 25 μM), the “nitric oxide level increase relative to control” value is reported as 60%. In the series with 3T3-L1 cells [2] (3T3-L1 cells, tested 25 to 100 μM), the “concentration of maximum activity (most effective concentration) for induction of nitrogen oxide generation” value was 25 µM. Besides, in the series with 3T3-L1 cells [2], the “NO generation, % to control” value turned out to be 15%.

In the series with normotensive rabbits, “Prostaglandin F2α Amide with γ-Aminobutyric Acid Nitroethanolamide [Compound 8]” came in with an IOP reduction of 2.00 mm Hg. In addition, in the series with 3T3-L1 cells [2], the “NO generation, % to control” value was determined as 22%.

On to prostaglandin F2α, for which the “calcium sensor fluorescence increase relative to control” value in the series with 3T3-L1 cells [4] is reported as 195 AU.

Usually EC50 stands for the concentration giving half of the maximal effect. The low end stands for a more potent agent, the high end for a less potent agent.
